# Reference: the CheMixHub viscosity set
# Where “and” joins values, the source holds several entries; their conditions need not be identical. Equal entries are not always repeated. ± gives the uncertainty stated by the source.
# Experiments:
# [1] = xn = mol fraction of the nth substance listed
compound,measurement,setting,value
C=Cn1cc[n+](CC(N)=O)c1.O=S(=O)([N-]S(=O)(=O)C(F)(F)F)C(F)(F)F,viscosity,"298.15 K, 100 kPa",280.7 ± 58 mPa·s
same,viscosity,"303.15 K, 100 kPa",140.3 ± 28 mPa·s
same,viscosity,"308.15 K, 100 kPa",71.51 ± 14 mPa·s
same,viscosity,"313.15 K, 100 kPa",35.3 ± 7.1 mPa·s
same,viscosity,"318.15 K, 100 kPa",19.85 ± 4 mPa·s
same,viscosity,"323.15 K, 100 kPa",12.53 ± 2.5 mPa·s
CC(=O)c1ccc(C)cc1,viscosity,"303.15 K, 100 kPa",1.581 ± 0.021 mPa·s
same,viscosity,"303.15 K, 101 kPa",1.581 ± 0.021 mPa·s
CC1CCC(=O)O1 (centres undefined),viscosity,"298.15 K, 101 kPa",1.873 ± 0.016 mPa·s
same,viscosity,"303.15 K, 101 kPa",1.72 ± 0.015 mPa·s
same,viscosity,"308.15 K, 101 kPa",1.586 ± 0.014 mPa·s
same,viscosity,"313.15 K, 101 kPa",1.458 ± 0.013 mPa·s
same,viscosity,"318.15 K, 101 kPa",1.364 ± 0.012 mPa·s
CCC1(C)OC1C#N (centres undefined),viscosity,"293.15 K, 101 kPa",1.485 ± 0.039 mPa·s
same,viscosity,"298.15 K, 101 kPa",1.34 ± 0.04 mPa·s
same,viscosity,"303.15 K, 101 kPa",1.19 ± 0.03 mPa·s
same,viscosity,"313.15 K, 101 kPa",0.98 ± 0.03 mPa·s
same,viscosity,"323.15 K, 101 kPa",0.84 ± 0.02 mPa·s
CCCCC(CC)COP(=O)(O)OCC(CC)CCCC (centres undefined),viscosity,"303.15 K, 101 kPa",20.25 ± 0.81 mPa·s
same,viscosity,"313.15 K, 101 kPa",13.35 ± 0.54 mPa·s
CCCCCCCCCCCCN,viscosity,"303.15 K, 101 kPa",2.658 ± 0.029 mPa·s
CCCCCCCCCCCC[N+](C)(C)Cc1ccccc1.O=S(=O)([N-]S(=O)(=O)C(F)(F)F)C(F)(F)F,viscosity,"298.15 K, 101 kPa",1425 ± 200 mPa·s
same,viscosity,"303.15 K, 101 kPa",974.3 ± 130 mPa·s
same,viscosity,"308.15 K, 101 kPa",682.7 ± 88 mPa·s
same,viscosity,"313.15 K, 101 kPa",484.8 ± 59 mPa·s
same,viscosity,"318.15 K, 101 kPa",351.1 ± 41 mPa·s
same,viscosity,"323.15 K, 101 kPa",260.6 ± 29 mPa·s
CCCCCCn1cc[n+](C)c1.F[P-](F)(F)(F)(F)F,viscosity,"303.15 K, 101 kPa",497.1 ± 150 mPa·s
same,viscosity,"308.15 K, 101 kPa",364.4 ± 110 mPa·s
same,viscosity,"313.15 K, 101 kPa",273 ± 83 mPa·s
same,viscosity,"318.15 K, 101 kPa",208.5 ± 63 mPa·s
CCCCOC(=O)C(C)O (centres undefined),viscosity,"318.15 K, 101 kPa",1.935 ± 0.034 mPa·s
CCCCOCCOCCOCCO,viscosity,"293.15 K, 101 kPa",9.282 ± 0.055 mPa·s
same,viscosity,"303.15 K, 101 kPa",6.528 ± 0.04 mPa·s
same,viscosity,"313.15 K, 101 kPa",4.979 ± 0.032 mPa·s
same,viscosity,"323.15 K, 101 kPa",3.769 ± 0.024 mPa·s
CCCC[n+]1cc[nH]c1.O=S(=O)([N-]S(=O)(=O)C(F)(F)F)C(F)(F)F,viscosity,"313.2 K, 101.33 kPa",47.18 ± 5.1 mPa·s
C[N+](=O)[O-],viscosity,"293.15 K, 101 kPa",0.648 ± 0.007 mPa·s
same,viscosity,"293.15 K, 101.33 kPa",0.644 ± 0.005 mPa·s and 0.644 ± 0.007 mPa·s and 0.646 ± 0.006 mPa·s
same,viscosity,"298 K, 101.3 kPa",0.627 ± 0.008 mPa·s
same,viscosity,"298.15 K, 101.33 kPa",0.6215 ± 0.0083 mPa·s and 0.615 ± 0.025 mPa·s
same,viscosity,"298.45 K, 101 kPa",0.619 ± 0.006 mPa·s
same,viscosity,"303.15 K, 101.33 kPa",0.581 ± 0.006 mPa·s and 0.581 ± 0.024 mPa·s
same,viscosity,"313.15 K, 101.33 kPa",0.522 ± 0.005 mPa·s and 0.522 ± 0.021 mPa·s
same,viscosity,"318 K, 101.3 kPa",0.5187 ± 0.02 mPa·s
same,viscosity,"318.15 K, 101 kPa",0.5208 ± 0.014 mPa·s and 0.51 ± 0.006 mPa·s and 0.505 ± 0.005 mPa·s
same,viscosity,"323.15 K, 101 kPa",0.486 ± 0.006 mPa·s
same,viscosity,"323.15 K, 101.33 kPa",0.4845 ± 0.0066 mPa·s
Cc1cccc(O)c1,viscosity,"293.15 K, 101 kPa",16.9 ± 0.28 mPa·s
same,viscosity,"298 K, 101.3 kPa",13.19 ± 0.26 mPa·s
same,viscosity,"303 K, 101.3 kPa",9.877 ± 0.17 mPa·s
same,viscosity,"308 K, 101.3 kPa",7.599 ± 0.1 mPa·s
same,viscosity,"308.15 K, 101.33 kPa",7.635 ± 0.16 mPa·s
same,viscosity,"313 K, 101.3 kPa",6.146 ± 0.065 mPa·s
same,viscosity,"313.15 K, 101 kPa",5.925 ± 0.064 mPa·s and 6.542 ± 0.18 mPa·s
same,viscosity,"313.15 K, 101.3 kPa",6.252 ± 0.075 mPa·s
same,viscosity,"313.15 K, 101.33 kPa",6.18 mPa·s
same,viscosity,"318 K, 101.3 kPa",4.968 ± 0.057 mPa·s
same,viscosity,"318.15 K, 101 kPa",5.373 ± 0.69 mPa·s and 5.373 ± 0.46 mPa·s
same,viscosity,"323.15 K, 101.3 kPa",4.111 ± 0.05 mPa·s
N,viscosity,"293.15 K, 101 kPa",0.144 ± 0.004 mPa·s
O=Cc1ccco1,viscosity,"293.15 K, 100 kPa",1.62 ± 0.65 mPa·s
same,viscosity,"298.15 K, 100 kPa",1.48 ± 0.59 mPa·s
same,viscosity,"303.15 K, 100 kPa",1.36 ± 0.54 mPa·s
same,viscosity,"308.15 K, 100 kPa",1.26 ± 0.5 mPa·s
same,viscosity,"313.15 K, 100 kPa",1.17 ± 0.47 mPa·s
same,viscosity,"318.15 K, 100 kPa",1.09 ± 0.44 mPa·s
same,viscosity,"323.15 K, 100 kPa",1.02 ± 0.41 mPa·s
OCC1CC1,viscosity,"293.15 K, 101 kPa",3.985 ± 0.085 mPa·s
same,viscosity,"298.15 K, 101 kPa",3.447 ± 0.074 mPa·s
same,viscosity,"303.15 K, 101 kPa",3.002 ± 0.064 mPa·s
same,viscosity,"308.15 K, 101 kPa",2.629 ± 0.056 mPa·s
same,viscosity,"313.15 K, 101 kPa",2.315 ± 0.05 mPa·s
same,viscosity,"323.15 K, 101 kPa",1.819 ± 0.039 mPa·s
c1ccc(Cc2ccccc2)cc1,viscosity,"302.85 K, 101 kPa",2.611 ± 0.069 mPa·s
CC(=O)NCC(=O)O + O,viscosity,"[1]; 305.15 K, 101 kPa, x1 = 3.6e-05",0.7912 ± 0.016 mPa·s
same,viscosity,"[1]; 305.15 K, 101 kPa, x1 = 7.24e-05",0.7987 ± 0.016 mPa·s
same,viscosity,"[1]; 305.15 K, 101 kPa, x1 = 0.000108",0.8032 ± 0.016 mPa·s
same,viscosity,"[1]; 305.15 K, 101 kPa, x1 = 0.000144",0.8098 ± 0.016 mPa·s
same,viscosity,"[1]; 305.15 K, 101 kPa, x1 = 0.0001823",0.8102 ± 0.016 mPa·s
same,viscosity,"[1]; 305.15 K, 101 kPa, x1 = 0.000344",0.8162 ± 0.016 mPa·s
same,viscosity,"[1]; 305.15 K, 101 kPa, x1 = 0.0007167",0.8254 ± 0.016 mPa·s
same,viscosity,"[1]; 305.15 K, 101 kPa, x1 = 0.001025",0.8325 ± 0.016 mPa·s
same,viscosity,"[1]; 305.15 K, 101 kPa, x1 = 0.001416",0.8398 ± 0.016 mPa·s
same,viscosity,"[1]; 305.15 K, 101 kPa, x1 = 0.001792",0.8466 ± 0.017 mPa·s
same,viscosity,"[1]; 305.15 K, 101 kPa, x1 = 0.002155",0.8523 ± 0.017 mPa·s
same,viscosity,"[1]; 305.15 K, 101 kPa, x1 = 0.002607",0.8583 ± 0.017 mPa·s
same,viscosity,"[1]; 305.15 K, 101 kPa, x1 = 0.003011",0.8641 ± 0.017 mPa·s
same,viscosity,"[1]; 305.15 K, 101 kPa, x1 = 0.003546",0.8721 ± 0.017 mPa·s
same,viscosity,"[1]; 310.15 K, 101 kPa, x1 = 3.6e-05",0.7079 ± 0.016 mPa·s
same,viscosity,"[1]; 310.15 K, 101 kPa, x1 = 7.24e-05",0.7201 ± 0.016 mPa·s
same,viscosity,"[1]; 310.15 K, 101 kPa, x1 = 0.000108",0.7298 ± 0.016 mPa·s
same,viscosity,"[1]; 310.15 K, 101 kPa, x1 = 0.000144",0.7307 ± 0.016 mPa·s
same,viscosity,"[1]; 310.15 K, 101 kPa, x1 = 0.0001823",0.7321 ± 0.016 mPa·s
same,viscosity,"[1]; 310.15 K, 101 kPa, x1 = 0.000344",0.7345 ± 0.016 mPa·s
same,viscosity,"[1]; 310.15 K, 101 kPa, x1 = 0.0007167",0.7372 ± 0.016 mPa·s
same,viscosity,"[1]; 310.15 K, 101 kPa, x1 = 0.001025",0.7401 ± 0.016 mPa·s
same,viscosity,"[1]; 310.15 K, 101 kPa, x1 = 0.001416",0.7443 ± 0.016 mPa·s
same,viscosity,"[1]; 310.15 K, 101 kPa, x1 = 0.001792",0.7473 ± 0.016 mPa·s
same,viscosity,"[1]; 310.15 K, 101 kPa, x1 = 0.002155",0.7499 ± 0.016 mPa·s
same,viscosity,"[1]; 310.15 K, 101 kPa, x1 = 0.002607",0.7554 ± 0.016 mPa·s
same,viscosity,"[1]; 310.15 K, 101 kPa, x1 = 0.003011",0.7603 ± 0.016 mPa·s
same,viscosity,"[1]; 310.15 K, 101 kPa, x1 = 0.003546",0.7654 ± 0.016 mPa·s
same,viscosity,"[1]; 315.15 K, 101 kPa, x1 = 3.6e-05",0.6523 ± 0.016 mPa·s
same,viscosity,"[1]; 315.15 K, 101 kPa, x1 = 7.24e-05",0.6594 ± 0.016 mPa·s
same,viscosity,"[1]; 315.15 K, 101 kPa, x1 = 0.000108",0.6613 ± 0.016 mPa·s
same,viscosity,"[1]; 315.15 K, 101 kPa, x1 = 0.000144",0.6623 ± 0.016 mPa·s
same,viscosity,"[1]; 315.15 K, 101 kPa, x1 = 0.0001823",0.6627 ± 0.016 mPa·s
same,viscosity,"[1]; 315.15 K, 101 kPa, x1 = 0.000344",0.6658 ± 0.016 mPa·s
same,viscosity,"[1]; 315.15 K, 101 kPa, x1 = 0.0007167",0.6685 ± 0.016 mPa·s
same,viscosity,"[1]; 315.15 K, 101 kPa, x1 = 0.001025",0.6724 ± 0.016 mPa·s
same,viscosity,"[1]; 315.15 K, 101 kPa, x1 = 0.001416",0.6751 ± 0.016 mPa·s
same,viscosity,"[1]; 315.15 K, 101 kPa, x1 = 0.001792",0.6785 ± 0.016 mPa·s
same,viscosity,"[1]; 315.15 K, 101 kPa, x1 = 0.002155",0.6822 ± 0.016 mPa·s
same,viscosity,"[1]; 315.15 K, 101 kPa, x1 = 0.002607",0.6887 ± 0.016 mPa·s
same,viscosity,"[1]; 315.15 K, 101 kPa, x1 = 0.003011",0.6933 ± 0.016 mPa·s
same,viscosity,"[1]; 315.15 K, 101 kPa, x1 = 0.003546",0.6996 ± 0.016 mPa·s
Cc1cccc(O)c1 + O=Cc1ccccc1,viscosity,"[1]; 308.15 K, 101.33 kPa, x2 = 0.103",5.863 ± 0.12 mPa·s
same,viscosity,"[1]; 308.15 K, 101.33 kPa, x2 = 0.308",3.972 ± 0.073 mPa·s
same,viscosity,"[1]; 308.15 K, 101.33 kPa, x2 = 0.398",3.45 ± 0.061 mPa·s
same,viscosity,"[1]; 308.15 K, 101.33 kPa, x2 = 0.545",2.597 ± 0.042 mPa·s
same,viscosity,"[1]; 308.15 K, 101.33 kPa, x2 = 0.602",2.3 ± 0.036 mPa·s
same,viscosity,"[1]; 308.15 K, 101.33 kPa, x2 = 0.704",1.844 ± 0.028 mPa·s
same,viscosity,"[1]; 308.15 K, 101.33 kPa, x2 = 0.903",1.37 ± 0.018 mPa·s
